Assay results as given in patent US7169756B2, “Streptogramin antibiotics” (priority 2005, dated 2007).
≈ marks a conversion by molar mass, not a printed value. Where two headings read alike, the source gives them in different places. Numbered stars: 1 amine (or outer) side, 2 acyl side, 3 side chain; on linkers, the order of the positions; unused ones are H or OH. Bridge positions count the residues as written; N and C are the ends. Square brackets hold non-standard residues; d marks the D form. Peptide text beside a SMILES is read from it. * marks the point of attachment. X1 = O=C1C[C@@H](C(=O)[*:2])N([*:1])C[C@H]1CS[C@@H]1CN2CCC1CC2; NMePhe(4-NMe2) = CN[C@@H](Cc1ccc(N(C)C)cc1)C(=O)O; Picolinoyl(3-OH) = O=C(c1ncccc1O)*; Phg = N[C@H](C(=O)O)c1ccccc1; Orn = NCCC[C@H](N)C(=O)O; dAbu = CC[C@@H](N)C(=O)O; Dap = NC[C@H](N)C(=O)O

Experiments:
in vitro translation = experiment: In Vitro Translation Assay; assay type: biochemical; conditions: FIG. 6
Experimental: Inhibition of translation was monitored using an ActivePro In Vitro Translation Kit from Ambion. Briefly, a reaction mixture was prepared as per the manufacturer's instructions that contained all of the constituents necessary (including [^35S]-methionine) except for DNA template. These mixtures were then preincubated for 15 min at room temperature in the presence or absence of various antibiotics. Subsequent to the preincubation period, a control template containing a chloramphenicol acetyltransferase gene under control of a bacteriophage T7 promoter was added and the reaction carried out for 1 hr at 37° C. Due to the insoluble nature of some of the antibiotics, the final DMSO concentration in each reaction including controls was maintained at 5% (v/v). Aliquots were taken after 1 hr, and separated on SDS polyacrylamide gels. The efficiency of translation of ^35S-labeled […] was analyzed and quantified using a Typhoon 9200 variable mode imager (Image-Quant 5.2 software).

E. coli BAS901/pUCVgb [1] = experiment: disk assay, zone of growth inhibition; assay type: cell-based, Escherichia coli; conditions: Vgb constitutively expressed
Excerpt: (§1) A hyperpermeable E. coli strain, E. coli BAS901, harboring a plasmid constitutively expressing Vgb was created for in vivo studies. The plasmids pVGB, described previously in [14], and […] were digested with Xbal and BamHI, to yield an approximately 1 kb fragment containing a ribosomal binding site upstream of vgb, and linearized pUC19 backbone, respectively. The vgb fragment was then subcloned into the linearized pUC19 backbone downstream of pLac yielding pUC19-VGB. Both pUC19-VGB and pUC19 were transformed E. coli BAS901.
(§2) The antibiotic activity of the peptides synthesized in this study was initially assayed using a disk assay where samples were applied to sterile paper disks placed on a fresh lawn of bacterial culture on appropriate agar plates as required by the organism. These were then incubated for 16 hr at 37° C. and the zone of growth inhibition surrounding the disks recorded. For quantitative assessment of antibiotic activity in liquid culture, the minimal inhibitory concentration (MIC) of peptides was determined by serial dilution studies. The peptides and standard antibiotics were dissolved in DMSO and the final concentration of DMSO in the liquid cultures was 5%. Both S. aureus RN4220 and E. coli BAS901 were able to grow efficiently at this level of DMSO.
(§3) Crude material from the initial synthesis reactions was used to test the potential of the analogues as antibiotics in susceptibility assays where a solution of the compound was placed on a paper disk on a lawn of bacteria. As described above, E. coli BAS901 is deficient in the Imp/OstA protein, an outer membrane protein, involved in cell envelope biogenesis (1, 5). […] The antibiotic activity of the peptides synthesized in this study was initially assayed using a disk assay where samples were applied to sterile paper disks placed on a fresh lawn of bacterial culture on Tryptic Soya, Luria Broth, or Brain Heart Infusion Agar plates. These were then incubated for 16 hrs at 37° C. and the zone of growth inhibition surrounding the disks recorded.

[2] = tested on: Enterococcus faecalis (ATCC 51299); experiment: disk assay, zone of growth inhibition; assay type: cell-based; conditions: vancomycin, aminoglycoside resistant
Experimental: as §2, §3

[3] = tested on: Salmonella enterica (ATCC 14028); experiment: disk assay, zone of growth inhibition; assay type: cell-based; conditions: serovar Typhimurium
Experimental: as §2, §3

[4] = tested on: Streptococcus pneumoniae (ATCC 49619); experiment: disk assay, zone of growth inhibition; assay type: cell-based
Experimental: as §2, §3

[5] = tested on: Staphylococcus aureus (ATCC 49476); experiment: disk assay, zone of growth inhibition; assay type: cell-based
Experimental: as §2, §3

[6] = tested on: Staphylococcus aureus (ATCC 25923); experiment: disk assay, zone of growth inhibition; assay type: cell-based
Experimental: as §2, §3

[7] = tested on: Staphylococcus aureus (ATCC 29213); experiment: disk assay, zone of growth inhibition; assay type: cell-based
Experimental: as §2, §3

[8] = tested on: Staphylococcus aureus (ATCC 43300); experiment: disk assay, zone of growth inhibition; assay type: cell-based; conditions: methicillin resistant, oxacillin resistant
Experimental: as §2, §3

B. subtilis 168 = assay type: cell-based, Bacillus subtilis
Experimental: as §2
(§4) Crude material from the initial synthesis reactions was used to test the potential of the analogues as antibiotics in susceptibility assays where a solution of the compound was placed on a paper disk on a lawn of bacteria. As described above, E. coli BAS901 is deficient in the Imp/OstA protein, an outer membrane protein, involved in cell envelope biogenesis (1, 5). […] These were then incubated for 16 hrs at 37° C. and the zone of growth inhibition surrounding the disks recorded.

E. coli BAS901/pUCVgb [9] = experiment: microbe, parasite or virus in culture; assay type: cell-based, Escherichia coli
Excerpt: as §1, §2

E. coli BAS901/pUC19 = experiment: microbe, parasite or virus in culture; assay type: cell-based, Escherichia coli
Excerpt: as §1, §2

E. coli BAS901/pUC19ermB = experiment: microbe, parasite or virus in culture; assay type: cell-based, Escherichia coli
Excerpt: In order to test the effects of 5 against E. coli BAS901 harboring ermB, the 23S rRNA methyltransferase, the plasmid pJIM2246 ΩermB [13] was purified from Staphylococcus aureus RN4220/pJIM2246 ΩermB. ErmB was subsequently amplified from pJIM2246 ΩermB via polymerase chain reaction using primers 5′-[…] AND 5′-[…] (engineered restriction enzyme sites are underlined). The amplified product was subcloned into pCR4Blunt-TOPO (Invitrogen) and transformed into E. coli XL10 GOLD, resulting in ermB being positioned in frame with the lacZ gene. This construct, designated pTOPOerm, was then used as template in the reamplification of ermB using a new forward primer containing a strong ribosomal binding consensus sequence (shown in italics); 5-[…]. […]
as §2, with “The peptides and standard antibiotics were dissolved in DMSO and the final concentration of DMSO in the liquid cultures was 5%. Both S. aureus RN4220 and E. coli BAS901 were able to grow efficiently at this level of DMSO.” left out

[10] = tested on: Streptococcus pneumoniae (ATCC 6305); assay type: cell-based
Experimental: as §2, §3

[11] = tested on: Staphylococcus epidermidis (ATCC 12228); assay type: cell-based
Experimental: as §2, §3

[12] = tested on: Staphylococcus epidermidis (ATCC 14990); assay type: cell-based
Experimental: as §2, §3

[13] = tested on: Enterococcus faecalis (ATCC 29212); assay type: cell-based
Experimental: as §2, §3

E. coli ribosomes = conditions: fluorescence titration, purified intact E. coli ribosomes
Haemophilus influenza = experiment: disk assay, zone of growth inhibition; assay type: cell-based, Haemophilus influenzae
Experimental: as §2, §4

[14] = E. coli BAS901/pUCVgb (expressing Vgb)

## CC(C)C[C@@H]1NC(=O)[C@H](CCCN)NC(=O)[C@H]([C@@H](C)O)NC(=O)[C@@H](NC(=O)c2ncccc2O)CNC(=O)[C@H](Cc2ccccc2)NC(=O)[C@@H]2CCCN2C(=O)[C@@H](Cc2ccccc2)NC1=O [Compound 5] ({Picolinoyl(3-OH)}-[Dap]T[Orn]L[dF]PF; lactam 1-C)
In vitro translation; at 250 μg/ml
  inhibition of in vitro translation: did not
E. coli BAS901/pUCVgb [1]
  Zone of Inhibition: still exhibit zones of inhibition
[2]
  Zone of Inhibition: n.i.
[3]
  Zone of Inhibition: n.i.
[4]
  Zone of Inhibition: n.i.
[5]
  Zone of Inhibition: n.i.
[6]
  Zone of Inhibition: n.i.
[7]
  Zone of Inhibition: n.i.
[8]
  Zone of Inhibition: n.i.
B. subtilis 168; 168, 16 h
  Zone of Inhibition: 0.8 cm
E. coli BAS901/pUCVgb [9]; [14]
  MIC: 32 µg/mL (≈ 34.5 µM)
E. coli BAS901/pUC19; E. coli BAS901/pUC19 (control), 5% DMSO
  MIC: 32 µg/mL (≈ 34.5 µM)
E. coli BAS901/pUC19ermB; E. coli BAS901/pUC19ermB (Erm methyltransferase)
  MIC: 32 µg/mL (≈ 34.5 µM)
[10]; ATCC 6305, 16 h
  Zone of Inhibition: 0.8 cm
[11]; ATCC 12228, 16 h
  Zone of Inhibition: 0.85 cm
[12]; ATCC 14990, 16 h
  Zone of Inhibition: 0.75 cm
[13]; ATCC 29212, 16 h
  Zone of Inhibition: 0.75 cm
E. coli ribosomes
  ribosome binding (increase of Hpa fluorescence): did not appear to interact with the ribosome
Haemophilus influenza
  Zone of Inhibition: n.i.

## CC[C@H]1NC(=O)[C@@H](NC(=O)c2ncccc2O)[C@@H](C)OC(=O)[C@H](c2ccccc2)NC(=O)[C@@H]2CC(=O)[C@H](CS[C@@H]3CN4CCC3CC4)CN2C(=O)[C@H](Cc2ccc(N(C)C)cc2)N(C)C(=O)[C@@H]2CCCN2C1=O [Quinupristin, quinupristin, reference compound] ({Picolinoyl(3-OH)}-T[dAbu]P[NMePhe(4-NMe2)][X1][Phg]; ester 1-C)
In vitro translation; 15 min preincubation, 1 hr at 37° C., 5% DMSO, concentration not given
  inhibition of in vitro translation: did block
E. coli BAS901/pUCVgb [1]
  Zone of Inhibition: n.i.^a
E. coli BAS901/pUCVgb [1]; listed as quinupristin
  Zone of Inhibition: inactivated
[2]
  Zone of Inhibition: n.i.
[3]
  Zone of Inhibition: n.i.
[4]
  Zone of Inhibition: 2.0 cm
[5]
  Zone of Inhibition: 2.6 cm
[6]
  Zone of Inhibition: 2.2 cm
[7]
  Zone of Inhibition: 2.3 cm
[8]
  Zone of Inhibition: n.i.
B. subtilis 168; B. subtilis 168, disk assay
  Zone of Inhibition: 2.2 cm
E. coli BAS901/pUCVgb [9]; [14]
  MIC: increased significantly
E. coli BAS901/pUCVgb [9]; Escherichia coli, BAS901/PUCVGB
  MIC: > 256 µg/mL
E. coli BAS901/pUC19; Escherichia coli, BAS901/PUC19
  MIC: 4 µg/mL (≈ 3.91 µM)
E. coli BAS901/pUC19ermB; Escherichia coli, BAS901/PUC19ERMB
  MIC: 16 µg/mL (≈ 15.7 µM)
[10]; Streptococcus pneumoniae (ATCC 6305), disk assay
  Zone of Inhibition: 2.1 cm
[11]; Staphylococcus epidermidis (ATCC 12228), disk assay
  Zone of Inhibition: 3.4 cm
[12]; Staphylococcus epidermidis (ATCC 14990), disk assay
  Zone of Inhibition: 3.0 cm
[13]; Enterococcus faecalis (ATCC 29212), disk assay
  Zone of Inhibition: 1.8 cm
E. coli ribosomes
  ribosome binding (increase of Hpa fluorescence): did support ribosome binding
Haemophilus influenza
  Zone of Inhibition: n.i.
